The NIST ThermoML archive (doi:10.1021/acs.jced.6b00951)

Settings: 100.3 kPa, Liquid; for viscosity: Capillary tube (Ostwald / Ubbelohde) method; for mass density: Vibrating tube method

O [water]
Settings | mass density [kg/m3] | viscosity [mPa·s]
288.15 K | – | 1.139
293.15 K | – | 1.002
298.15 K | – | 0.8897
303.15 K | – | 0.7988
308.15 K | – | 0.7184
313.15 K | – | 0.6525
318.15 K | – | 0.596
323.15 K | 988.04 | 0.547
328.15 K | 985.69 | 0.5043
